Test results: the OligoGym collection
HELM strings list units from the 5' end as sugar, base in round brackets, then linkage (d deoxyribose, r ribose, m 2'-O-methyl, p phosphodiester). Strings are as the collection lists them; they lack the last nucleoside at the 3' end of the tested compound. [moe] = 2'-O-(2-methoxyethyl) (MOE); [sp] = phosphorothioate linkage; [m5C] = 5-methylcytosine

Biological target: PRNP
Assay: mouse, dose not given
Settings: ASO

| Substance | 3 h FOB score [score 0-7] |
| --- | --- |
| RNA1{[moe](A)[sp].[moe](A)p.[moe](A)p.[moe]([m5C])p.[moe](G)[sp].d(T)[sp].d([m5C])[sp].d([m5C])[sp].d(A)[sp].d(T)[sp].d(T)[sp].d(T)[sp].d(T)[sp].d([m5C])[sp].d(T)[sp].[moe](G)p.[moe](T)p.[moe](G)[sp].[moe]([m5C])}$$$$ (last 3' nucleoside missing) | 0 |
| RNA1{[moe](A)[sp].[moe](A)p.[moe](G)p.[moe](G)p.[moe](T)[sp].d(T)[sp].d([m5C])[sp].d(G)[sp].d([m5C])[sp].d([m5C])[sp].d(A)[sp].d(T)[sp].d(A)[sp].d(A)[sp].d(T)[sp].[moe](G)p.[moe](A)p.[moe]([m5C])[sp].[moe](T)}$$$$ (last 3' nucleoside missing) | 5.25 |
| RNA1{[moe](A)[sp].[moe](A)p.[moe](G)p.[moe]([m5C])p.[moe]([m5C])[sp].d(T)[sp].d(T)[sp].d(T)[sp].d([m5C])[sp].d(A)[sp].d(T)[sp].d(A)[sp].d(T)[sp].d(A)[sp].d(T)[sp].[moe](G)p.[moe](T)p.[moe](T)[sp].[moe](A)}$$$$ (last 3' nucleoside missing) | 0 |
| RNA1{[moe](A)[sp].[moe](A)p.[moe](T)p.[moe](G)p.[moe](A)[sp].d([m5C])[sp].d(T)[sp].d([m5C])[sp].d(A)[sp].d(T)[sp].d([m5C])[sp].d(A)[sp].d(T)[sp].d(T)[sp].d(T)[sp].[moe](T)p.[moe](G)p.[moe]([m5C])[sp].[moe]([m5C])}$$$$ (last 3' nucleoside missing) | 0 |
| RNA1{[moe](A)[sp].[moe](A)p.[moe](T)p.[moe](T)p.[moe](T)[sp].d([m5C])[sp].d(T)[sp].d(T)[sp].d(T)[sp].d(T)[sp].d(T)[sp].d([m5C])[sp].d([m5C])[sp].d(A)[sp].d([m5C])[sp].[moe](T)p.[moe](T)p.[moe]([m5C])[sp].[moe](A)}$$$$ (last 3' nucleoside missing) | 0 |
| RNA1{[moe](A)[sp].[moe](A)p.[moe](T)p.[moe]([m5C])p.[moe](A)[sp].d(T)[sp].d(A)[sp].d(T)[sp].d(T)[sp].d(T)[sp].d([m5C])[sp].d(T)[sp].d(G)[sp].d(T)[sp].d([m5C])[sp].[moe](A)p.[moe](T)p.[moe]([m5C])[sp].[moe](T)}$$$$ (last 3' nucleoside missing) | 5 |
| RNA1{[moe](A)[sp].[moe](A)p.[moe](T)p.[moe]([m5C])p.[moe](A)[sp].d(T)[sp].d(T)[sp].d([m5C])[sp].d(T)[sp].d(G)[sp].d(G)[sp].d(T)[sp].d(T)[sp].d(T)[sp].d([m5C])[sp].[moe]([m5C])p.[moe](A)p.[moe](G)[sp].[moe](G)}$$$$ (last 3' nucleoside missing) | 0.5 |
| RNA1{[moe](A)[sp].[moe](A)p.[moe]([m5C])p.[moe](A)p.[moe](T)[sp].d(T)[sp].d(T)[sp].d(G)[sp].d(A)[sp].d(T)[sp].d(T)[sp].d(T)[sp].d([m5C])[sp].d(A)[sp].d(A)[sp].[moe](G)p.[moe](T)p.[moe]([m5C])[sp].[moe]([m5C])}$$$$ (last 3' nucleoside missing) | 2.5 |
| RNA1{[moe](A)[sp].[moe](A)p.[moe]([m5C])p.[moe](G)p.[moe](T)[sp].d([m5C])[sp].d([m5C])[sp].d(A)[sp].d(T)[sp].d(T)[sp].d(T)[sp].d(T)[sp].d([m5C])[sp].d(T)[sp].d(G)[sp].[moe](T)p.[moe](G)p.[moe]([m5C])[sp].[moe](T)}$$$$ (last 3' nucleoside missing) | 0 |
| RNA1{[moe](A)[sp].[moe](G)p.[moe](A)p.[moe](G)p.[moe]([m5C])[sp].d(A)[sp].d(A)[sp].d(T)[sp].d(A)[sp].d(T)[sp].d(A)[sp].d(T)[sp].d(T)[sp].d([m5C])[sp].d(A)[sp].[moe]([m5C])p.[moe]([m5C])p.[moe](A)[sp].[moe](A)}$$$$ (last 3' nucleoside missing) | 0 |
| RNA1{[moe](A)[sp].[moe](G)p.[moe](G)p.[moe](G)p.[moe]([m5C])[sp].d(A)[sp].d(T)[sp].d(T)[sp].d(A)[sp].d(G)[sp].d(T)[sp].d(A)[sp].d(T)[sp].d(A)[sp].d([m5C])[sp].[moe](T)p.[moe](G)p.[moe](A)[sp].[moe](G)}$$$$ (last 3' nucleoside missing) | 2.75 |
| RNA1{[moe](A)[sp].[moe](G)p.[moe](T)p.[moe](A)p.[moe](T)[sp].d([m5C])[sp].d(A)[sp].d(T)[sp].d(G)[sp].d(T)[sp].d(G)[sp].d(G)[sp].d([m5C])[sp].d([m5C])[sp].d(T)[sp].[moe]([m5C])p.[moe]([m5C])p.[moe](T)[sp].[moe](A)}$$$$ (last 3' nucleoside missing) | 5.75 |
| RNA1{[moe](A)[sp].[moe](G)p.[moe](T)p.[moe](T)p.[moe]([m5C])[sp].d(T)[sp].d(T)[sp].d(T)[sp].d(T)[sp].d([m5C])[sp].d(T)[sp].d(T)[sp].d(T)[sp].d(G)[sp].d([m5C])[sp].[moe](A)p.[moe]([m5C])p.[moe](A)[sp].[moe]([m5C])}$$$$ (last 3' nucleoside missing) | 5.25 |
| RNA1{[moe](A)[sp].[moe](G)p.[moe]([m5C])p.[moe](A)p.[moe]([m5C])[sp].d(A)[sp].d(G)[sp].d(G)[sp].d([m5C])[sp].d(T)[sp].d(A)[sp].d(T)[sp].d([m5C])[sp].d(T)[sp].d(T)[sp].[moe](T)p.[moe]([m5C])p.[moe](T)[sp].[moe](A)}$$$$ (last 3' nucleoside missing) | 5 |
| RNA1{[moe](A)[sp].[moe](G)p.[moe]([m5C])p.[moe](T)p.[moe]([m5C])[sp].d(T)[sp].d(A)[sp].d(T)[sp].d(T)[sp].d(A)[sp].d(A)[sp].d(T)[sp].d(A)[sp].d(G)[sp].d(G)[sp].[moe](T)p.[moe](T)p.[moe](A)[sp].[moe](G)}$$$$ (last 3' nucleoside missing) | 5.5 |
| RNA1{[moe](A)[sp].[moe](G)p.[moe]([m5C])p.[moe](T)p.[moe]([m5C])[sp].d(T)[sp].d([m5C])[sp].d([m5C])[sp].d(T)[sp].d(G)[sp].d(T)[sp].d(A)[sp].d(T)[sp].d(G)[sp].d(T)[sp].[moe]([m5C])p.[moe](A)p.[moe](A)[sp].[moe](A)}$$$$ (last 3' nucleoside missing) | 4.75 |
| RNA1{[moe](A)[sp].[moe](T)p.[moe](G)p.[moe](G)p.[moe](T)[sp].d(G)[sp].d([m5C])[sp].d(T)[sp].d(T)[sp].d(T)[sp].d([m5C])[sp].d(A)[sp].d([m5C])[sp].d(A)[sp].d(A)[sp].[moe]([m5C])p.[moe](T)p.[moe](G)[sp].[moe]([m5C])}$$$$ (last 3' nucleoside missing) | 1 |
| RNA1{[moe](A)[sp].[moe](T)p.[moe](G)p.[moe](G)p.[moe]([m5C])[sp].d(A)[sp].d([m5C])[sp].d(T)[sp].d(T)[sp].d(T)[sp].d([m5C])[sp].d(T)[sp].d(T)[sp].d(T)[sp].d(T)[sp].[moe](T)p.[moe](A)p.[moe](T)[sp].[moe](T)}$$$$ (last 3' nucleoside missing) | 1 |
| RNA1{[moe](A)[sp].[moe](T)p.[moe](G)p.[moe](T)p.[moe](T)[sp].d(A)[sp].d([m5C])[sp].d(A)[sp].d(G)[sp].d(T)[sp].d(T)[sp].d(A)[sp].d(T)[sp].d(G)[sp].d(T)[sp].[moe](T)p.[moe]([m5C])p.[moe](A)[sp].[moe]([m5C])}$$$$ (last 3' nucleoside missing) | 2.5 |
| RNA1{[moe](A)[sp].[moe](T)p.[moe](G)p.[moe](T)p.[moe](T)[sp].d(T)[sp].d(T)[sp].d([m5C])[sp].d([m5C])[sp].d(A)[sp].d(G)[sp].d(T)[sp].d(G)[sp].d([m5C])[sp].d([m5C])[sp].[moe]([m5C])p.[moe](A)p.[moe](T)[sp].[moe]([m5C])}$$$$ (last 3' nucleoside missing) | 5.75 |
| RNA1{[moe](A)[sp].[moe](T)p.[moe](G)p.[moe]([m5C])p.[moe]([m5C])[sp].d(A)[sp].d([m5C])[sp].d(A)[sp].d(T)[sp].d(A)[sp].d(T)[sp].d(A)[sp].d(G)[sp].d(G)[sp].d(G)[sp].[moe](T)p.[moe]([m5C])p.[moe]([m5C])[sp].[moe](T)}$$$$ (last 3' nucleoside missing) | 3 |
| RNA1{[moe](A)[sp].[moe](T)p.[moe](T)p.[moe](T)p.[moe](A)[sp].d(G)[sp].d(G)[sp].d([m5C])[sp].d(T)[sp].d([m5C])[sp].d(T)[sp].d(T)[sp].d(T)[sp].d(T)[sp].d([m5C])[sp].[moe]([m5C])p.[moe](A)p.[moe](G)[sp].[moe](G)}$$$$ (last 3' nucleoside missing) | 4.75 |
| RNA1{[moe](A)[sp].[moe](T)p.[moe](T)p.[moe](T)p.[moe](A)[sp].d([m5C])[sp].d(T)[sp].d(T)[sp].d(T)[sp].d(T)[sp].d([m5C])[sp].d(A)[sp].d(G)[sp].d([m5C])[sp].d(T)[sp].[moe](G)p.[moe]([m5C])p.[moe]([m5C])[sp].[moe](T)}$$$$ (last 3' nucleoside missing) | 3 |
| RNA1{[moe](A)[sp].[moe](T)p.[moe](T)p.[moe](T)p.[moe](A)[sp].d([m5C])[sp].d(T)[sp].d([m5C])[sp].d(T)[sp].d(T)[sp].d(G)[sp].d(T)[sp].d(T)[sp].d(G)[sp].d(A)[sp].[moe](A)p.[moe]([m5C])p.[moe](A)[sp].[moe](G)}$$$$ (last 3' nucleoside missing) | 3.75 |
| RNA1{[moe](A)[sp].[moe](T)p.[moe](T)p.[moe](T)p.[moe](G)[sp].d(A)[sp].d(T)[sp].d(T)[sp].d(T)[sp].d([m5C])[sp].d(A)[sp].d(A)[sp].d(G)[sp].d(T)[sp].d([m5C])[sp].[moe]([m5C])p.[moe]([m5C])p.[moe](A)[sp].[moe](G)}$$$$ (last 3' nucleoside missing) | 5.75 |
| RNA1{[moe](A)[sp].[moe](T)p.[moe]([m5C])p.[moe](A)p.[moe](T)[sp].d(T)[sp].d(T)[sp].d(T)[sp].d(G)[sp].d([m5C])[sp].d([m5C])[sp].d(A)[sp].d(T)[sp].d(T)[sp].d(T)[sp].[moe](A)p.[moe](T)p.[moe]([m5C])[sp].[moe](T)}$$$$ (last 3' nucleoside missing) | 3.25 |
